From patent US8524765B2, “Compounds that modulate intracellular calcium” (Calcimedica, Inc., priority 2007, dated 2013)
Entries after “also recorded” stand apart in the source; their conditions may differ.

What was measured:
[1] = tested on: store-operated calcium entry in RBL-2H3 cells; test: Fluorescence (FLUO-4/FLIPR384) store-operated calcium entry screening assay; format: cell-based, rat
Procedure: Fluorescence-based assays were used for screening the compounds described herein, such as compounds of Formula (I) and Formula (II), which modulate intracellular calcium.
RBL-2H3 cells plated in 384-well plates were loaded for 45 min with FLUO-4-AM (2 μM final concentration) in HBSS. Cells were washed and placed in a nominally Ca^2+- and Mg^2+-free Hanks solution. One minute later, a test agent or vehicle was added. After a 15 minute incubation period, 1 μM thapsigargin (Tg) was added to inhibit the ER Ca^2+ pump and discharge intracellular Ca^2+ stores. Fifteen minutes after addition of Tg, store-operated calcium entry was initiated by adding external Ca^2+ to a final concentration of 1.8 mM and the cells monitored for a further 10-15 minutes. Calcium levels were monitored throughout the assay using a FLIPR^384 (Molecular Devices fluorimetric imaging plate reader for high throughput screening).
A similar screening assay procedure was used with HEK293 and RBL-2H3 cells.
The kinetic data from the FLIPR^384 were analyzed and then stored in a relational database (ActivityBase; IDBS). Ten quantitative parameters were calculated that define various aspects of the store-operated calcium entry response. These parameters are as follows:
Up slope: linear regression of the increase in RFU from 2 to 30 sec after addition of Ca^2+.
Combinations of these parameters were used to characterize the compounds of Formula (I). Compounds were retested under identical conditions to confirm their activity. Compounds with confirmed activity were then analyzed for concentration-dependent effects, and subsequently, those compounds displaying concentration-dependent effects were categorized as compounds that modulate intracellular calcium.

RBL-2H3 cells = test: TNF-α release assay (ELISA); format: cell-based; settings: Rattus norvegicus; RBL-2H3 cells induced with TG/TPA; FIG. 3; read-out: IC50 for inhibition of TNF-alpha release
Procedure: To assess degranulation and cytokine release, RBL-2H3 cells were plated and stimulated with 20 nM thapsigargin/20 nM TPA for 20 hr in the presence or absence of compound of Formula (I) or Formula (II). Media was collected and assayed for the release of β-hexosaminidase or for the release of the inflammatory mediator cytokine TNF-α. The β-hexosaminidase enzymatic assay was performed by adding 200 μL 1 mM p-nitrophenyl-acetyl-glucosamide substrate (Sigma #N9376) in 0.05M Na Citrate (pH 4.5) to 50 μL of conditioned medium, incubating for 60 min at 37° C., then adding 500 μL 0.05M Na carbonate, 0.05M Na bicarbonate pH 10.5, mixing thoroughly, and reading the absorbance at 405 nm in a BioRad plate reader. The TNF-α release assay was performed using the Rat Tumor Necrosis Factor-a Ultrasensitive ELISA Kit from BioSource.

rat T cells = test: IL-2 secretion in rat T cells; format: cell-based; settings: T-cell, FIG. 5, read-out: IC50 for inhibition of IL-2 secretion
primary human T cells = test: Con A-induced cell proliferation of primary human T cells; format: cell-based; settings: FIG. 6, read-out: IC50 for inhibition of Con A-induced cell proliferation
SOCE = test: Selectivity profile; settings: FIG. 8
[2] = Rat collagen induced arthritis (CIA) model, liver weight; format: in vivo; settings: given orally, FIG. 11
Procedure: 40 rats are injected with collagen to get 40 solid responders on days 10,11 for 4 groups of 10. Four nonimmunized animals serve as normal controls.
Collagen is prepared by making a 4 mg/ml solution in 0.01N Acetic acid. Equal volumes of collagen and Freund's incomplete adjuvant, are emulsified by hand mixing until a bead of this material holds its form when placed in water.
Animals (10 rats/group for arthritis, 4 rats/group for normal control).
Animals in groups 2-5 are anesthetized with isoflurane and given collagen injections (DO); each animal gets 300 μl of the mixture spread over 3 subcutaneous sites on the back. On Day 6 (D6) the animals are anesthetized again and given a second collagen injection, as before.
Rats are weighed on Days 0, 3, 6, and 9-17 of arthritis, and caliper measurements of ankles taken every day beginning on Day 9. Final body weights are taken on Day 17 of arthritis. On Day 17, all animals are anesthetized for terminal blood draw and then euthanized. Subsequently, hind paws and knees are removed, the hind paws are weighed and then (with knees) placed in formalin for processing for microscopy. Livers, spleen and thymus and kidneys are also removed, trimmed of extraneous tissue and weighed. Kidneys are retained in formalin for histopathology.
Sampling will occur over 1 day and involves groups 2-5 with samples retained from all groups.

HEK[STIM1] cells = test: STIM1-dependent Ca2+ entry in STIM1-overexpressing cells; format: cell-based, human; settings: HEK293 overexpressing STIM1, no Tg store depletion; FIG. 13
Procedure: To test whether the Ca^2+ entry pathway activated by STIM1 overexpression is pharmacologically similar to endogenous SOCE, HEK[STIM1] cells were pre-incubated with increasing doses of 2-APB and STIM1-dependent Ca^2+ entry was measured.

hOrail/hSTIM1 [3] = target: T1, hOrail/hSTIM1 (Homo sapiens, UniProt Q96D31); test: Recombinant hOrail/hSTIM1-dependent Ca2+ entry in stable cells; format: cell-based; settings: FIG. 14
T1 construct: expressed in transfected cells

hOrail/hSTIM1 [4] = target: T1, hOrail/hSTIM1; test: Monster ICRAC in cells stably overexpressing hOrail/hSTIM1; format: cell-based; settings: FIG. 15
[5] = Skin transplant rejection in Lewis rats; format: in vivo, rat; settings: FIG. 18
[6] = DNBS-induced colitis in rats (ulcerative colitis model for IBD); format: in vivo, rat; settings: FIG. 20
Procedure: Procedure: Male Wistar rats weighing 200±20 g are fasted for 24 hours prior to use. Distal colitis is induced by intra-colonic instillation of DNBS (2,4-dinotrobenzene sulfonic acid, 20 mg in 0.5 ml ethanol 30%) with a catheter of 12 cm in length, followed by gentle injection of air (2 ml) through the catheter to ensure that the solution remain in the colon. The animals are divided into groups of 5 each. Test substance and vehicle are administered either daily or twice daily by appropriate route of administration 24 hour and 1 hour before DNBS instillation and then for 6 consecutive days thereafter. One normal control group is treated with 0.9% NaCl alone without DNBS challenge. […] During the experiment, body weight, fecal occult blood and stool consistency are monitored daily. Furthermore, when the abdominal cavity is opened before removal of the colon, adhesions between the colon and other organs are noted as is the presence of colonic ulceration after removal and weighing of each colon (a macroscopic damage score is recorded according to established score criteria). The colon-to-body weight ratio is calculated according to the formula: Colon (g)/BW×100. The “Net” increase in ratio of Vehicle-control+DNBS group relative to Vehicle-control group is used as a base for comparison with individual treated groups and expressed as “Dec. […]

T1 sequence (Q96D31 whole entry): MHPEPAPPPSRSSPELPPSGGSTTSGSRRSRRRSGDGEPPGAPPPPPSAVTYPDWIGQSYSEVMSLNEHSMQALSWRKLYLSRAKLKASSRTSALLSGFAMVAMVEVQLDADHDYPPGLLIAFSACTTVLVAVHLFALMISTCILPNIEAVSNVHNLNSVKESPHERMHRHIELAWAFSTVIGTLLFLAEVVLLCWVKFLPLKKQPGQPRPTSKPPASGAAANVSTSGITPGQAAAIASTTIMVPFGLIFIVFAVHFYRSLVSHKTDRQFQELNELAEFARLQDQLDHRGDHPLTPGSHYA
T1 sequence (Q13586 23-685 partner): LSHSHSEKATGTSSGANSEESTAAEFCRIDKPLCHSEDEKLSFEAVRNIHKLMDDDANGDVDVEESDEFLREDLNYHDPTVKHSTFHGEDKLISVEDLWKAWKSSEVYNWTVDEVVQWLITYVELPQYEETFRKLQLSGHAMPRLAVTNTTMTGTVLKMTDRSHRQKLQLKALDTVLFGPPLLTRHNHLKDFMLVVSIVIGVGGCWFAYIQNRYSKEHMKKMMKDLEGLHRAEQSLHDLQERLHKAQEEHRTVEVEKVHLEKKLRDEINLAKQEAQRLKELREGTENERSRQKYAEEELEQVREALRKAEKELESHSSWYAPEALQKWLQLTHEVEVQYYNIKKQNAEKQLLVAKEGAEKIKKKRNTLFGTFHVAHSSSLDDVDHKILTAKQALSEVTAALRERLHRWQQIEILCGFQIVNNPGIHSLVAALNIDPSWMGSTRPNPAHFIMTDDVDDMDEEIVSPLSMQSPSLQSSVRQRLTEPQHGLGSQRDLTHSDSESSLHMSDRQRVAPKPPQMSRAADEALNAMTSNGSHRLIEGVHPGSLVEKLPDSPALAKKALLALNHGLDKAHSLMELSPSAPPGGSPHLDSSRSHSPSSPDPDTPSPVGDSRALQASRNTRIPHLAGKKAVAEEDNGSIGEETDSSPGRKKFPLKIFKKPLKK

## O=C(Nc1scc(-c2ccc(Br)cc2)c1C(=O)O)c1ccc(F)cc1 [Compound 1, 2-(4-fluorobenzamido)-4-(4-bromophenyl)thiophene-3-carboxylic acid]
[1]; RBL-2H3 cells, FIG. 2
  inhibition of the initial kinetics of the CRAC channel response: concentration-dependent inhibition
[1]; Rattus norvegicus, RBL-2H3, 10 μM, cell line not stated
  inhibition at 10 µM: > 70%
[1]; Rattus norvegicus, Up slope parameter, RBL-2H3 cells
  IC50: 2.2 µM
RBL-2H3 cells
  IC50: 3300 nM
Rat T cells
  IC50: ~2500 nM
Primary human T cells
  IC50: ~3700 nM
SOCE
  selectivity profile: selective inhibitor of SOCE
[2]
  reduction in liver weight: no liver weight reduction
HEK[STIM1] cells
  effect on STIM1-dependent Ca2+ entry: concentration dependent inhibition; also recorded: blocked
hOrail/hSTIM1 [3]
  effect on recombinant hOrail/hSTIM1-dependent Ca2+ entry: inhibition
hOrail/hSTIM1 [4]
  effect on Monster ICRAC: inhibit
[5]
  rejection of skin transplants: delayed rejection
[6]
  inflammation in the rat ulcerative colitis model for IBD: inhibition of inflammation
